Patent US20140024548A1, “DRUG SELECTION FOR MALIGNANT CANCER THERAPY USING ANTIBODY-BASED ARRAYS” (NESTEC S.A., priority 2010, published 2014)
Blank lines part the entries; values can stand above or below the compound they belong to.

Tests used:
[1] = in vivo; cited from earlier work
CYP450 = settings: cited from earlier work
cMET = biological target: T1, cMET (Homo sapiens, UniProt P08581); assay: CEER detection of activated cMET in HCC827 cells treated with HGF; type: cell-based; settings: HGF stimulation, FIG. 10B
T1 construct: host or cells: HCC827
Procedure: (§1) In one particular embodiment, cells from a NSCLC cell line (e.g., HCC827 cells or other gefitinib sensitive lung adenocarcinoma cells with EGFR-activating mutations; American Type Culture Collection, Manassas, Va.) were treated with different concentrations of ligand or signaling molecule (e.g., the ligand for the cMET receptor, HGF). The levels of expression and activation of proteins associated with cancer were measured in the treated cells with high sensitivity using CEER arrays. By varying the amount of ligand exposed to the cancer cells, the expression profiles of the analyzed proteins were correlated to the amount of ligand used to stimulate the cells. Dose response curves were used to calculate EC50 values which can be used to interpret the inhibition and activation states of the analyzed proteins.
(§2) FIG. 10 illustrates the difference in protein expression in HCC827 cells following HGF stimulation. […] FIG. 10E illustrates that HGF and cMET binding interferes with HER3 activation, and HER1 and HER2 to a lesser extent (see also, FIGS. 10C and 10D).

HER1 = assay: CEER detection of activated HER1 in HCC827 cells treated with HGF; type: cell-based; settings: HGF stimulation, judged by increased EC50
Procedure: as §1, §2

HER2 = assay: CEER detection of activated HER2 in HCC827 cells treated with HGF; type: cell-based; settings: HGF stimulation, judged by increased EC50
Procedure: as §1, §2

HER3 = assay: CEER detection of activated HER3 in HCC827 cells treated with HGF; type: cell-based; settings: HGF stimulation, judged by increased EC50
Procedure: as §1, §2

human xenograft models = settings: dosed orally; cited from earlier work
[2] = early Phase I evaluation; cited from earlier work

T1 sequence (P08581 25-1390): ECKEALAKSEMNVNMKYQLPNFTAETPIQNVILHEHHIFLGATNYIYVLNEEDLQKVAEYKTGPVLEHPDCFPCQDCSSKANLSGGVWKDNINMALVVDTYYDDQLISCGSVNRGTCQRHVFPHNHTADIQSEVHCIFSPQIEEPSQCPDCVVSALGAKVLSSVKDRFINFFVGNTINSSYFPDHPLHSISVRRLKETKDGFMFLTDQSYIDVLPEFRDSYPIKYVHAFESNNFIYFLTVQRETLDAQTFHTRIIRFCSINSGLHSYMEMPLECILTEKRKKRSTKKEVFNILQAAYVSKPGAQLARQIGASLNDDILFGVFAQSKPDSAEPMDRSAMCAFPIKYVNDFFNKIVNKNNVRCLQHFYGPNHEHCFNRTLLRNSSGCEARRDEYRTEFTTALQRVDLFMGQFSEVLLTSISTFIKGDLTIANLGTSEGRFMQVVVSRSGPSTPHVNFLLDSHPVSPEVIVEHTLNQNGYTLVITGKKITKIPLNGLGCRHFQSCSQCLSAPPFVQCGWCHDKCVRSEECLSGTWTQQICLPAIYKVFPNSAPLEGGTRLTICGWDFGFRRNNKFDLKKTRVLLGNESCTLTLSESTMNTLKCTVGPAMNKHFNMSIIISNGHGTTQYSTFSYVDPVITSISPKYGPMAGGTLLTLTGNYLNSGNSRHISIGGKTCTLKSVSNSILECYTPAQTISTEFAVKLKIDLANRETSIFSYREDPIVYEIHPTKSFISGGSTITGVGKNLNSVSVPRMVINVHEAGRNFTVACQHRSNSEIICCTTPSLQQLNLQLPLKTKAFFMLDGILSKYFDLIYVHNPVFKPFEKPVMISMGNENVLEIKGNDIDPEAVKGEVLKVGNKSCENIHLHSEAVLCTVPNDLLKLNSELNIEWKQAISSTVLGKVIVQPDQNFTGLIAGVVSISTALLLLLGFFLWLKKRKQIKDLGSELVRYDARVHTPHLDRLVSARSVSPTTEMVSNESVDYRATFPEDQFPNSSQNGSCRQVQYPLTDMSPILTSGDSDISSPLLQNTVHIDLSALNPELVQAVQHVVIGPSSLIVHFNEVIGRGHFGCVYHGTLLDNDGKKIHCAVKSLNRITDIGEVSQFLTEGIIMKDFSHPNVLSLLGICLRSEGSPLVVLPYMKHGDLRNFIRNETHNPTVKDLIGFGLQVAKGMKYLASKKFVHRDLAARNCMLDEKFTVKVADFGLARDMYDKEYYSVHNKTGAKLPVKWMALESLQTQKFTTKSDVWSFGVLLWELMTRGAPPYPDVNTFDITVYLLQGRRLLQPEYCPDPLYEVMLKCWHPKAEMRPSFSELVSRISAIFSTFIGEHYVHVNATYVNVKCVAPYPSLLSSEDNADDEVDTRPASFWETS

Compound: COc1cc2c(Oc3ccc(NC(=O)C4(C(=O)Nc5ccc(F)cc5)CC4)cc3F)ccnc2cc1OCCCN1CCOCC1 [GSK 1363089/XL880]
oral bioavailability [1]: good oral bioavailability
CYP450 substrate / inhibitor / inducer status (CYP450): substrate, but not an inhibitor or inducer

cMET activation (cMET): activated cMET effectively
Compound: HGF: hepatocyte growth factor, the ligand for the cMET receptor
HER1 activation (HER1): decreased
HER2 activation (HER2): decreased
HER3 activation (HER3): decreased

Compound: Cn1cc(-c2ccc3nnc(Sc4ccc5ncccc5c4)n3n2)cn1 [SGX523]
antitumor activity (human xenograft models): potent antitumor activity
toxicity (human xenograft models): no overt toxicity

Compound: CN(C[C@@H]1COCCO1)S(=O)(=O)Nc1ccc2ccc3ncc(-c4cnn(C)c4)cc3c(=O)c2c1 [MK-2461]
tolerability [2]: well tolerated
